How the values were obtained:
[1] = tested on: KLRG-1, CTLA-4, TIM-3, PD-1, IFNγ/Granzyme B, FoxP3; test: Ex vivo flow cytometry of splenocytes after seven doses, murine melanoma model (Example 13); type: in vivo, mice; conditions: 7 doses, Compound B 4 mg/mouse PO QD, Compound C 2.5 mg/mouse IV QD; for inhibition of CTLA-4 as compared to control / inhibition of KLGR-1 as compared to control / inhibition of PD-1 as compared to control / inhibition of TIM-3 as compared to control: CD8+ splenocytes, one mouse per group
Description: (§1) This study was designed to evaluate the effects of Compound B and Compound C on tumor growth and the overall survival of animals implanted SC with 10^5 melanoma cells. Furthermore, ex vivo analysis of splenocytes at the end of dosing was used to evaluate change in the T-cell population and function. FIG. 8A is a diagram of the study design.
(§2) Animals were housed four per cage and had access to food and water ad libitum. Compound B was dissolved in sterile PBS, and pH was adjusted to approximately 7.5. Compound C was first dissolved in DMSO before diluting in sterile PBS. Sterile PBS was used as a control. Compound B was dosed at 4 mg/mouse PO QD. This dose was expected to result in an exposure equivalent to a 1 mg/mouse IV dose. Compound C was dosed at 2.5 mg/mouse IV.
(§3) B16F10 melanoma cells were grown in RPMI 1640 media supplemented with 10% FBS and antibiotics (penicillin/streptomycin) using T75 flasks. When cells reached 70-80% confluency, they were treated with 3 ml of 0.25% trypsin/EDTA. Detached cells were harvested. A single-cell suspension was prepared in PBS. A dorsal SC injection of 10^5 cells in mice marked day 0 of the experiment. Animals were monitored daily, and tumors were measured twice a week.
For tumor growth inhibition, animals were divided into 3 groups. The control group received an IV injection of PBS to match the start time, dosing volume, and dosing frequency of the Compound C treatment group. The treatment group received 100 μl of 4 mg/mouse PO QD of Compound B for 7 days starting at day 7 after tumor implantation, or 2.5 mg/mouse IV QD of Compound C. The endpoint was reached when the tumor reached 1 cm^3. Tumor volume was calculated using the following formula: […]
On day 14, one mouse from each group was sacrificed for ex vivo analysis. One animal with an average tumor size was selected from the control group and the Compound B treatment group. Since no animals in the Compound C treatment group had any visible tumors by day 14, one mouse was selected at random from the Compound C treatment group.
Spleens were collected and a single-cell suspension was prepared for cellular phenotyping by flow cytometry. Cells were stained and gated for CD8. IFNγ, Granzyme B (GzmB), KLRG-1, CTLA-4, TIM-3, and PD-1 expression was evaluated. Cells gated for CD4 were evaluated for FoxP3 expression.

[2] = Body weight change in murine melanoma model (Example 13); type: in vivo, mice; conditions: Compound B 4 mg/mouse PO QD x7, Compound C 2.5 mg/mouse IV QD
Description: as §2, §3

Oral bioavailability = type: in vivo
B16F10 melanoma cells = test: Tumor growth inhibition and overall survival, SC B16F10 melanoma (Example 13); type: in vivo, mice; conditions: Compound B 4 mg/mouse PO QD x7, Compound C 2.5 mg/mouse IV QD; for animals showing any tumor growth: by day 14; for animals with measurable tumors: by day 16; for tumor volume versus placebo group: duration of the study
Description: as §1, §2, §3
For tumor growth inhibition, animals were divided into 3 groups. The control group received an IV injection of PBS to match the start time, dosing volume, and dosing frequency of the Compound C treatment group. The treatment group received 100 μl of 4 mg/mouse PO QD of Compound B for 7 days starting at day 7 after tumor implantation, or 2.5 mg/mouse IV QD of Compound C. The endpoint was reached when the tumor reached 1 cm^3. Tumor volume was calculated using the following formula:
Tumor volume=length×width×½ width
The mice were also monitored for survival, and were euthanized when the tumor size reached the predefined endpoint of 1 cm^3.

Granzyme B and IFN-γ = test: Dose-response of GranzymeB/IFN-γ double positivity in murine CD8+ T-cells, Example 9; type: cell-based, C57BL/6 mice; conditions: Mus musculus, T-cell; for Emax: FIG. 4, 5-parameter fit, read-out: maximal response (GzmB/IFN-γ double positive CD8+ T-cells)
Description: A dose-response analysis of compounds B-E in murine CD8+ T-cells was conducted to evaluate the effect of dose on GranzymeB/IFN-γ double positivity.
Compound C, D and E were first dissolved in a small volume of DMSO before diluting to the final desired concentration.
Splenocytes from naïve C57BL/6 mice were stained with CFSE, prepared, cultured, and dosed. Cells were seeded at 2×10^5 cells/well. Negative control was dosed with 10 ng/ml IL-2. After ConA stimulation (10 μg/ml), cells were dosed with log 3 dilution of each compound from 3×10^−9 to 30 µM in triplicates. All wells were dosed with 10 ng/ml of IL-2.
Flow cytometer analysis was performed to assess percent CD8+ T-cells and percent activation by double staining for Granzyme B (GzmB) and IFN-γ as described in Example 7. Concentration versus response curve was fitted to a 4- or 5-parameter log-logistic model using the “dre” package in “R”. Both EC50 and EC90 were obtained by model fitting.

Structure (SMILES)	decrease in FoxP3 positive CD4+ T-cells compared to placebo [1] [%]	increase in GrzmB/INFγ double-positive CD8+ T-cells compared to placebo [1] [%]	inhibition of CTLA-4 as compared to control [1] [%]	inhibition of KLGR-1 as compared to control [1] [%]	inhibition of PD-1 as compared to control [1] [%]	inhibition of TIM-3 as compared to control [1] [%]	greatest measured weight loss [2] [%]	animals did not survive the study (B16F10 melanoma cells)	animals survived tumor-free for the duration of the study (B16F10 melanoma cells)	animals survived with a tumor (to day 28) (B16F10 melanoma cells)	survival (B16F10 melanoma cells) [%]	animals showing any tumor growth (B16F10 melanoma cells)	animals with measurable tumors (B16F10 melanoma cells)	tumor volume versus placebo group (B16F10 melanoma cells)	EC50 (Granzyme B and IFN-γ; 4-parameter model) [nM]	EC90 (Granzyme B and IFN-γ; 4-parameter model) [nM]	EC50 (Granzyme B and IFN-γ; 5-parameter model) [nM]	EC90 (Granzyme B and IFN-γ; 5-parameter model) [nM]	Emax (Granzyme B and IFN-γ) [%]	also measured
O=C(O)[C@H](O)[C@@H](O)C(=O)OCCC(c1ccccc1)c1ccccc1 [Compound C, (2R,3R)-4-(3,3-diphenylpropoxy)-2,3-dihydroxy-4-oxobutanoic acid]	59	62	77	70	70	71	1.5	2/8	5/8	1/8	80	0/8	0	statistically lower	43	29000	42	28000	~60	oral bioavailability (Oral bioavailability; prior study): not orally bioavailable
O=C(O)[C@H](O)[C@@H](O)C(=O)OCCCc1ccccc1 [Compound B, (2R,3R)-2,3-dihydroxy-4-oxo-4-(3-phenylpropoxy)butanoic acid]	1.5	25	42	55	13	63	3	3/7	3/7	1/7	40	3/7	3	statistically lower	9.8	950	11	3000	~60	bioavailability (Oral bioavailability; mouse, in vivo, po, data not shown): ~30%

— patent publication US20250177340A1, “Tartaric Acid Analogs and Uses Thereof” (Lapix Therapeutics, Inc., priority 2021, published 2025)
